From patent US20100168112A1, “2-Substituted and 4-substituted aryl nitrone compounds” (RENOVIS, INC., priority 2004, published 2010)
Like-named read-outs stand apart in the source and are kept apart here.

How the values were obtained:
[1] = Solubility measurement at pH 7.4; assay type: physicochemical; conditions: aqueous buffer, thermodynamic from solid, phosphate buffer pH 7.4, room temperature
Method: Nitrone compounds (>3 mg) of this invention were mixed with a phosphate buffer at pH 7.4 to make a >0.3 mg/mL mixture. The mixture was vortexed for more than 2 hours and equilibrated over 12 hours at room temperature. The equilibrated mixture was used to saturate a 0.45 μm Tuffryn syringe filter. After saturating, the remainder of the mixture was filtered through the saturated filter. The filtrate was diluted by 1, 10, 100, and 1000 fold and analyzed using a LC/MS/MS method with standard curve ranging from 1 to 1000 ng/mL.

[2] = Microsomal stability in rat liver microsomes; assay type: in vitro ADME; conditions: rat liver microsomes 0.5 mg/ml, 1 mM NADPH, ~500 ng/ml compound, 37° C.
Method: (§1) Frozen Sprague-Dawley rat liver microsomes (RLM) were thawed on ice and gently mixed before use. The final reaction mixture consisted of a nitrone compound of this invention (at ˜500 ng/ml), 1 mM NADPH, and 0.5 mg/ml of RLM protein in 0.1 M PBS (pH7.4), with organic solvent concentration not exceeding 1% (v/v). Per set of incubations, a positive control compound was included. The mixture was first pre-incubated 3 to 5 minutes at 37° C. without NADPH, and the reaction was then initialized by the addition of NADPH and incubated at 37° C. for up to 30 minutes. An aliquot of the reaction mixture was sampled at the initiation of the reaction and at designated time after reaction started. The drawn samples were quenched with acetonitrile, diluted with mobile phase to ensure the detection of test article in the linear range, and analyzed by LC/MS/MS. Half-life or percentage of remaining nitrone compound was calculated using standard methods. A similar method, or a slight variation of it, was used to test the stability of nitrones in human liver microsomes (HLM).

[3] = Pharmacokinetic evaluation following intravenous and oral administration in rats; assay type: in vivo; conditions: male, Sprague-Dawley; for Cmax / Tmax / bioavailability: 5 mg/kg; for Cmax: rat plasma; for Cmax / Tmax: oral gavage, 2 mg/mL at 2.5 mL/kg; for clearance / Vd / Tmax / bioavailability / half-life: plasma, rat; for clearance / Vd / half-life: 1 mg/kg; for clearance / Vd: intravenous administration, 1 mg/mL at 1.0 mL/kg; for clearance: read-out: CI (clearance) (converted); for Vd: read-out: Vd (volume of distribution); for bioavailability: po 2 mg/mL at 2.5 mL/kg vs iv 1 mg/mL at 1.0 mL/kg, dose-normalized, read-out: F (%) oral bioavailability; for half-life: intravenous, read-out: T1/2 elimination half life (converted)
How it was run: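 Male Sprague-Dawley rats, fasted, dosed iv (1 mg/mL formulation, 1.0 mL/kg, jugular or tail vein) or by oral gavage (2 mg/mL suspension, 2.5 mL/kg). Plasma sampled from 2 min to 480 min, some to 24 h, and quantified by LC-MS/MS (MRM). Parameters from noncompartmental analysis.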

[4] = DPPH free radical-scavenging/antioxidant assay; assay type: biochemical; conditions: 50 μM DPPH in 80% methanol; 24 h time point; read-out: EC50 (concentration at which a compound reduces by 50% the peak absorbance of DPPH at 520 nm)
How it was run: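 Compounds diluted 100-fold from DMSO stocks into 50 μM DPPH in 80% methanol; absorbance at 520 nm followed kinetically to steady state, with the 24 h reading used. EC50 interpolated from OD520 versus concentration; Trolox, BHA, PBN and S-PBN as positive controls, DMSO as vehicle.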

[5] = Microsomal stability in human liver microsomes; assay type: in vitro ADME; conditions: NADPH, 37° C.
Method: as §1

1K1C rats = test: Kidney ischemia-reperfusion injury, one-kidney one-clip (1K1C) model, fractional excretion of sodium; assay type: in vivo; conditions: mean ± SEM
Method: Rats were individually housed in a modified cage that was equipped with a raised mesh bottom to separate the fecal product from urine. Before the test, all animals were withheld from food and water overnight. In the morning of the test, normal saline (i.e., 0.9% sodium chloride) was given via oral gavage at […] (Lipschitz, W. L. Hadidian, Z. & Kerpcar, A.: Bioassay of diuretics., J. Pharmacol. Exp. Ther., 79: 97-110, 1943). Samples of blood and urine were collected (standard procedures) at time points (1 and/or 5 hrs after fluid intake) from animals, centrifuged, and kept at 4 degrees until analysis for factors that reflect renal functions. Sodium and creatinine levels were determined by Quality Clinical Labs, Inc. (Mountain View, Calif.). Sodium concentrations were determined by ion selective electrode (standard procedures). Creatinine levels were determined by the alkaline picrated (Jaffe) reaction as described (Liobat-Estelles, M., Sevillano-Cabeja, A. & Campines-Falco, P.: Kinetic chemometric studies of the determination of creatinine using the Jaffe reaction. Part I: kinetics of the reaction; analytical conclusion. Analyst, 11: 597-602, 1989). Fractional excretion of sodium (FENa+), a parameter for ion-handling by the kidney, was calculated, using the following equation: =UNa×Pcr/PNa×Ucr, where UNa is the concentration of sodium in urine; Pcr is the plasma concentration of creatinine; PNa is the […]; and Ucr is the concentration of creatinine in the urine.
After the data for the calculation of basal levels of FENa+ was obtained (Table 16), rats were anesthetized with pentobarbital (65 mg/kg, i.p.). The abdominal region was shaved with a safety razor and sterilized with povidone iodine solution. A midline incision was made and the right kidney was exposed. The right renal pedicle and right urether were both ligated twice with 4-0 sutures and cut between the ligations. The right kidney was then removed. 7 days later, these rats, after another overnight food-water deprivation, were randomly assigned into 3 groups and orally given either Compound 62 (50 mg/kg, at the volume of 1 ml/kg,p.o.) or its vehicle (i.e., 96% of 0.5% CMC and 4 of 20% Tween 80, at the volume of 1 ml/kg, p.o.) 1 hr before kidney ischemia was produced. Positive controls were performed using quercetin (30 mg/kg, i.p.) given 2 hrs before ischemia (Kahraman, A., Erkasap, N., Serteser, M. & Koken, T.: Protective effect of quercetin on renal ischemia/reperfusion injury in rats. J. Nephrol., 16: 219-224, 2003). Animals were then anesthetized and had their left kidneys exposed after opening of their abdominal cavities. A non-traumatic vascular clamp was applied to the left renal pedicle (the ischemia phase), which was released 45 min later (the reperfusion phase). Lipschitz test was then conducted to measure ion-handling capabilities. Normal saline was orally administered at […] as soon as the vascular clamp was released. 60- and 300-min after reperfusion, plasma and urine samples were obtained.

[6] = read-out: Solubility @ pH 7.4 (μg/mL)
[7] = 1K1C rats, Compound 62 50 mg/kg p.o. 1 hr before ischemia, quercetin 30 mg/kg i.p. 2 hrs before, 45 min ischemia

Row | SMILES | solubility ([1]; read-out: Solubility @ pH 7.4) | solubility [1, 6] | % of Nitrone Remaining at 30 min (Rat) [2] | Cmax [3] | clearance [3] | Vd [3] | Tmax [3] | bioavailability [3] | half-life [3] | EC50 [4] | % of Nitrone Remaining at 30 min (Human) [5] | 1-hr post-ischemic FENa+ (%) (1K1C rats; [7]) | 5-hr post-ischemic FENa+ (%) (1K1C rats; [7]) | FENa+ (%) pre-surgery (basal) levels (1K1C rats; rats before 1K1C modeling, group baseline)
1 | CC(C)(C)/[N+]([O-])=C/c1ccc(C(=O)O)cc1 [Compound 13, N-tert-Butyl-C-(4-carboxy-phenyl)nitrone] | 9040 µM | 2000 µg/mL | 100% | 5580 ng/mL | 12.8 mL/min/kg | 0.41 L/kg | 19.8 min | 64.7% | 22.2 min | – | – | – | – | –
2 | CC(C)(C)NC(=O)c1ccc(/C=[N+](\[O-])C(C)(C)C)cc1 [Compound 18, N-(tert-Butyl)-C-[4-(N-tert-butylcarbamoyl)phenyl]nitrone] | 1360 µM | 376 µg/mL | 100% | 2240 ng/mL | 21.5 mL/min/kg | 0.62 L/kg | 25.2 min | 75.1% | 19.8 min | – | – | – | – | –
3 | CC(C)(C)/[N+]([O-])=C/c1ccc(C(N)=O)cc1 [Compound 19] | 14200 µM | 3130 µg/mL | 100% | 3000 ng/mL | 2.33 mL/min/kg | 0.74 L/kg | 19.8 min | 39.5% | 218 min | – | – | – | – | –
4 | O=S(=O)(c1ccccc1/C=[N+](\[O-])C1CCCCC1)N1CCCCC1 [Compound 34, N-Cyclohexyl-C-[2-(piperidine-1-sulfonyl)phenyl]nitrone] | 1420 µM | 500 µg/mL | 0% | – | – | – | – | – | – | > 1000 µM | – | – | – | –
5 | O=S(=O)(c1ccccc1/C=[N+](\[O-])Cc1ccccc1)N1CCCCC1 [Compound 35, N-Benzyl-C-[2-(piperidine-1-sulfonyl)phenyl]nitrone] | 107 µM | 38.4 µg/mL | 0% | – | – | – | – | – | – | > 1000 µM | – | – | – | –
6 | O=c1c(O)c(-c2ccc(O)c(O)c2)oc2cc(O)cc(O)c12 [Quercetin, quercetin, reference compound] | – | – | – | – | – | – | – | – | – | – | – | 0.54 ± 0.02 % | 5.23 ± 4.43% | 1.60 ± 0.15%

The next lines start with results.

Row | solubility ([1]; read-out: Solubility @ pH 7.4) | solubility [1, 6] | % of Nitrone Remaining at 30 min (Rat) [2] | Cmax [3] | clearance [3] | Vd [3] | Tmax [3] | bioavailability [3] | half-life [3] | EC50 [4] | % of Nitrone Remaining at 30 min (Human) [5] | SMILES | 1-hr post-ischemic FENa+ (%) (1K1C rats; [7]) | 5-hr post-ischemic FENa+ (%) (1K1C rats; [7]) | FENa+ (%) pre-surgery (basal) levels (1K1C rats; rats before 1K1C modeling, group baseline)
7 | 2530 µM | 791 µg/mL | 7.4% | 40 ng/mL | 93.8 mL/min/kg | 4.15 L/kg | 4.98 min | 1.7% | 30.6 min | > 1000 µM | – | CCN(CC)S(=O)(=O)c1ccccc1/C=[N+](\[O-])C(C)(C)C [Compound 30, N-tert-Butyl-C-(2-diethylsulfamoylphenyl)nitrone] | – | – | –
8 | 2890 µM | 978 µg/mL | 0% | – | – | – | – | – | – | > 1000 µM | – | CCN(CC)S(=O)(=O)c1ccccc1/C=[N+](\[O-])C1CCCCC1 [Compound 31, N-Cyclohexyl-C-(2-diethylsulfamoylphenyl)nitrone] | – | – | –
9 | > 3330 µM | > 1080 µg/mL | 0.3% | 10 ng/mL | 36.2 mL/min/kg | 1.66 L/kg | 4.98 min | 0.1% | 32.4 min | > 1000 µM | – | CC(C)(C)/[N+]([O-])=C/c1ccccc1S(=O)(=O)N1CCCCC1 [Compound 33, N-tert-Butyl-C-[2-(piperidine-1-sulfonyl)phenyl]nitrone] | – | – | –
10 | – | – | 78% | 339 ng/mL | 31.5 mL/min/kg | 0.98 L/kg | 14.4 min | 13.7% | 21 min | 500 to 1000 µM | 94% | CC(C)S(=O)(=O)c1ccc(/C=[N+](\[O-])C(C)(C)C)c(S(=O)(=O)C(C)C)c1 [Compound 65, N-tert-Butyl-C-(2,4-bis-2-propanesulfonylphenyl)nitrone] | – | – | –
